Data published in US7858644B2, “EP4 receptor antagonists” (Asterand UK Limited, priority 2003, dated 2010).
Structures can show the parent of a compound that is named as a salt.

Legend:
human EP2 receptor = target: T1, human EP2 receptor (Homo sapiens, UniProt P43116); assay: Binding ability to human EP2 receptor ([3H]PGE2 displacement); conditions: read-out: pKi EP2 (converted)
T1 construct: expressed in transfected cells
Protocol: (§1) Membranes were prepared from cells stably transfected with human EP receptor cDNA. In brief, cells were cultured to confluency, scraped from culture flasks, and centrifuged (800 g, 8 minutes, 4° C.). Cells were twice washed in ice cold homogenisation buffer containing 10 mMTris-HCl, 1 mM EDTA. 2Na, 250 mM sucrose, 1 mM PMSF, 0.3 mM indomethacin, pH 7.4, homogenised and re-centrifuged as before. The supernatant was stored on ice and pellets re-homogenised and re-spun. Supernatants were pooled and centrifuged at 40000 g, 10 minutes, 4° C. Resultant membrane pellets were stored at −80° C. until use.
(§2) For assay, membranes expressing human EP4, EP3, EP2 or EP1 receptors were incubated in Millipore (MHVBN45) plates containing assay buffer, radiolabelled [^3H]PGE2 and 0.1 to 10 000 nM concentrations of compounds. Incubations were performed at suitable temperatures and for suitable times to allow equilibrium to be reached. Non-specific binding was determined in the presence of 10 uM PGE2. Bound and free radiolabel was separated by vacuum manifold filtration using appropriate wash buffers, and bound radiolabel was determined by scintillation counting. Constituents of each of the buffers are included in table 1 below.
(§3) This approach follows that set out in Kenakin, T. P., Pharmacologic analysis of drug receptor interaction. Raven Press, New York, 2nd edition.

human EP3 receptor = target: T2, human EP3 receptor (Homo sapiens, UniProt P43115); assay: Binding ability to human EP3 receptor ([3H]PGE2 displacement); conditions: membranes from cells stably transfected with human EP receptor cDNA; [3H]PGE2 2.5 nM; Cheng-Prusoff from IC50; read-out: pKi EP3 (converted)
T2 construct: expressed in transfected cells
T2 sequence (P43115 1-390): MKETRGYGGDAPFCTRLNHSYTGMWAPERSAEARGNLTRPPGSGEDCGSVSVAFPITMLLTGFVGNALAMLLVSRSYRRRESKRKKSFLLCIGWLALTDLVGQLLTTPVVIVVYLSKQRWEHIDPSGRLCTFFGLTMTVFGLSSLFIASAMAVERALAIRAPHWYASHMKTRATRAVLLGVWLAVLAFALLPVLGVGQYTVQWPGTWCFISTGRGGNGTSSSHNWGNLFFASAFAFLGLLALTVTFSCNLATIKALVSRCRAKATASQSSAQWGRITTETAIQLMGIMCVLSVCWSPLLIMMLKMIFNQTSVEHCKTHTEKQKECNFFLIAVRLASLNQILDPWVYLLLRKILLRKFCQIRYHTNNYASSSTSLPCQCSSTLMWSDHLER
Protocol: as §1, §2, §3

T1 sequence (P43116 whole entry): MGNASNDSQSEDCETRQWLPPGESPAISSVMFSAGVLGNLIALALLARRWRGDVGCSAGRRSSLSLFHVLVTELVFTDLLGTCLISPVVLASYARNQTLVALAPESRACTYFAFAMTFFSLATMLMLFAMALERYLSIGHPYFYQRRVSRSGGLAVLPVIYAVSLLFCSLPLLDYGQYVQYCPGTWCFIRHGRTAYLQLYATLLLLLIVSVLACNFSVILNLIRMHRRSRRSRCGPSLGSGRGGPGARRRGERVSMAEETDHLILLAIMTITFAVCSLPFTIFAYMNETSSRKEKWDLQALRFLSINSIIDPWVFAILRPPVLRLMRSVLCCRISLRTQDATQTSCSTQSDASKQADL

Ki (human EP2 receptor) [µM]	Ki (human EP3 receptor) [µM]	Compound
> 10	> 10	Cc1oc(C(=O)O)cc1COc1ccc(-c2ccc(CO)cc2)cc1 [Compound 110, 4-(4′-Hydroxymethyl-biphenyl-4-yloxymethyl)-5-methyl-furan-2-carboxylic acid]
> 3.16	> 10	Cc1oc(C(=O)NS(=O)(=O)c2ccccc2)cc1COc1ccc(-c2ccc(OC(F)F)cc2)cc1 [Compound 130, N-[4-(4′-Difluoromethoxy-biphenyl-4-yloxymethyl)-5-methyl-furan-2-carbonyl]-benzenesulphonamide]
> 10	> 10	COc1ccc(-c2ccc(OCc3cc(C(=O)NS(=O)(=O)c4ccc(C)cn4)oc3C)cc2)cc1 [Compound 11, 5-Methyl-pyridyl-2-sulfonic acid [4-(4′-methoxy-biphenyl-4-yloxymethyl)-5-methyl-furan-2-carbonyl]-amide]
> 10	> 10	O=C(O)c1cc(COc2ccc(-c3ccccc3)cc2)co1 [Compound 77, 4-(Biphenyl-4-yloxymethyl)-furan-2-carboxylic acid]
> 3.16	> 10	Cc1noc(C)c1S(=O)(=O)NC(=O)c1cc(COc2ccc(-c3ccc(OC(F)F)cc3)cc2)c(C)o1 [Compound 131, 3,5-Dimethyl-isoxazole-4-sulphonic acid [4-(4′-difluoromethoxy-biphenyl-4-yloxymethyl)-5-methyl-furan-2-carbonyl]-amide]
> 10	> 10	Cc1oc(C(=O)O)cc1COc1ccc(-c2ccc(C#N)cc2)cc1 [Compound 57, 4-(4′-Cyano-biphenyl-4-yloxymethyl)-5-methyl-furan-2-carboxylic acid]
> 3.16	> 10	COc1ccc(-c2ccc(OCc3cc(C(=O)NS(=O)(=O)c4ccccc4)oc3C)cc2)cc1 [Compound 5, N-[4-(4′-Methoxy-biphenyl-4-yloxymethyl)-5-methyl-furan-2-carbonyl]-benzenesulfonamide]
> 10	> 10	Cc1oc(C(=O)O)cc1COc1ccc(-c2ccc(OC(F)F)cc2)cc1 [Compound 129, 4-(4′-Difluoromethoxy-biphenyl-4-yloxymethyl)-5-methyl-furan-2-carboxylic acid]
> 10	> 10	COc1ccccc1-c1ccc(OCc2cc(C(=O)NS(=O)(=O)c3ccccc3)oc2C)cc1 [Compound 127, N-[4-(2′-Methoxy-biphenyl-4-yloxymethyl)-5-methyl-furan-2-carbonyl]-benzenesulphonamide]
> 10	> 10	O=C(O)c1cc(COc2ccc(-c3ccccc3)cc2)c(C(F)(F)F)o1 [Compound 90, 4-(Biphenyl-4-yloxymethyl)-5-trifluoromethyl-furan-2-carboxylic acid]
> 10	> 10	COc1ccc(-c2ccc(OCc3cc(C(=O)NS(=O)(=O)c4ccc(CN)cc4)oc3C)cc2)cc1 [Compound 12, 4-Aminomethyl-N-[4-(4′-methoxy-biphenyl-4-yloxymethyl)-5-methyl-furan-2-carbonyl]-benzenesulfonamide trifluoroacetate]
> 10	> 10	CCCS(=O)(=O)NC(=O)c1cc(COc2ccc(-c3ccc(OC)cc3)cc2)c(C)o1 [Compound 8, Propane-1-sulfonic acid [4-(4′-methoxy-biphenyl-4-yloxymethyl)-5-methyl-furan-2-carbonyl]-amide]
> 3.16	> 10	Cc1oc(C(=O)O)cc1COc1ccc(-c2ccc(Cl)cc2)cc1 [Compound 27, 4-(4′-Chloro-biphenyl-4-yloxymethyl)-5-methyl-furan-2-carboxylic acid]
> 10	> 10	Cc1oc(C(=O)NS(=O)(=O)c2ccccc2)cc1COc1ccc(-c2ccccc2)cc1 [Compound 19, N-[4-(Biphenyl-4-yloxymethyl)-5-methyl-furan-2-carbonyl]-benzenesulfonamide]
> 10	> 10	COc1ccc(-c2ccc(OCc3cc(C(=O)NS(=O)(=O)N(C)C)oc3C)cc2)cc1 [Compound 122, N-[4-(4′-Methoxy-biphenyl-4-yloxymethyl)-5-methyl-furan-2-carbonyl]-dimethylamino-sulphonamide]
> 10	> 10	CC(=O)c1ccc(-c2ccc(OCc3cc(C(=O)O)oc3C)cc2)cc1 [Compound 21, 4-(4′-Acetyl-biphenyl-4-yloxymethyl)-5-methyl-furan-2-carboxylic acid]
> 10	> 10	Cc1oc(C(=O)NS(=O)(=O)c2ccccc2)cc1CNc1ccc(-c2ccccc2)cc1 [Compound 161, N-[4-(biphenyl-4-ylaminomethyl)-5-methyl-furan-2-carbonyl]-benzenesulphonamide]
> 10	> 10	COc1cccc(-c2ccc(OCc3cc(C(=O)O)oc3C)cc2)c1 [Compound 116, 4-(3′-Methoxy-biphenyl-4-yloxymethyl)-5-methyl-furan-2-carboxylic acid]
> 10	> 10	COc1ccc(-c2ccc(OCc3cc(C(=O)NS(C)(=O)=O)oc3C)cc2)cc1 [Compound 7, N-[4-(4′-Methoxy-biphenyl-4-yloxymethyl)-5-methyl-furan-2-carbonyl]-methanesulfonamide]
> 10	> 10	COc1ccc(-c2ccc(OCc3cc(C(=O)NS(=O)(=O)c4c(C)noc4C)oc3C)cc2)cc1 [Compound 9, 3,5-Dimethyl-isoxazole-4-sulfonic acid [4-(4′-methoxy-biphenyl-4-yloxymethyl)-5-methyl-furan-2-carbonyl]-amide]
> 10	> 10	Cc1oc(C(=O)O)cc1COc1ccc(-c2ccc3c(c2)OCO3)cc1 [Compound 28, 4-(4-Benzo[1,3]dioxol-5-yl-phenoxymethyl)-5-methyl-furan-2-carboxylic acid]
> 3.16	> 10	COc1ccc(-c2ccc(OCc3cc(C(=O)NS(=O)(=O)c4cccs4)oc3C)cc2)cc1 [Compound 10, Thiophene-2-sulfonic acid [4-(4′-methoxy-biphenyl-4-yloxymethyl)-5-methyl-furan-2-carbonyl]-amide]
> 10	> 10	COc1ccc(-c2ccc(OCc3cc(C(=O)NS(=O)(=O)c4ccccc4)oc3C)cc2)nc1 [Compound 132, N-{4-[4-(5-Methoxy-pyridin-2-yl)-phenoxymethyl]-5-methyl-furan-2-carbonyl}-benzenesulphonamide]
> 3.16	> 10	Cc1ccccc1S(=O)(=O)NC(=O)c1cc(CNc2ccc(-c3ccc(OC(F)F)cc3)cc2)c(C)o1 [Compound 173, N-{4-[(4′-Difluoromethoxy-biphenyl-4-ylamino)-methyl]-5-methyl-furan-2-carbonyl}-2-methyl-benzenesulphonamide]
> 10	> 10	CC(C)c1oc(C(=O)O)cc1COc1ccc(-c2ccccc2)cc1 [Compound 85, 4-(Biphenyl-4-yloxymethyl)-5-isopropyl-furan-2-carboxylic acid]
> 10	> 10	Cc1oc(C(=O)O)cc1COc1ccc(-c2ccc(OC(F)(F)F)cc2)cc1 [Compound 114, 5-Methyl-4-(4′-trifluoromethoxy-biphenyl-4-yloxymethyl)-furan-2-carboxylic acid]
> 10	> 10	COc1ccc(-c2ccc(OCc3cc(C(=O)O)oc3C)cc2)cc1OC [Compound 96, 4-(3′,4′-Dimethoxy-biphenyl-4-yloxymethyl)-5-methyl-furan-2-carboxylic acid]
> 10	> 10	CC(=O)c1ccc(-c2ccc(OCc3cc(C(=O)NS(=O)(=O)c4ccccc4)oc3C)cc2)cc1 [Compound 22, N-[4-(4′-Acetyl-biphenyl-4-yloxymethyl)-5-methyl-furan-2-carbonyl]-benzenesulfonamide]
> 10	> 10	COc1ccc(-c2ccc(OCc3cc(C(=O)O)oc3C)cc2)cc1 [Compound 4, 4-(4′-Methoxy-biphenyl-4-yloxymethyl)-5-methyl-furan-2-carboxylic acid]
> 10	> 10	COc1ccc(-c2ccc(OCc3cc(C(=O)NS(=O)(=O)c4c(C)noc4C)oc3C)cc2)nc1 [Compound 133, 3,5-Dimethyl-isoxazole-4-sulphonic acid {4-[4-(5-methoxy-pyridin-2-yl)-phenoxymethyl]-5-methyl-furan-2-carbonyl}-amide]
